Our source for the Ki values is BindingDB's records for doi:10.1016/j.ab.2004.03.009 (Schering-Plough Research Institute, 2004).

For the assay, the target named is E3 ubiquitin-protein ligase Mdm2 (Homo sapiens, UniProt Q00987). The experiment in a line: Fluorescence Polarization (FP) Binding Assay. To be noted: pH 7.4; 23 °C. As to the method:
Ki values were determined from a competition experiment in which serial dilutions of inhibitor were added to compete against a fixed concentration (1 or 10 nM) of the fluorescent ligand for binding to a fixed concentration of the protein. Ki value was determined by nonlinear regression fitting of the competition curve using a set of custom equations and an Excel curve fitting tool.
(In general: Polarisation of emitted light reports the rotation of a fluorescent probe.)

Chain of E3 ubiquitin-protein ligase Mdm2 (Q00987 whole entry): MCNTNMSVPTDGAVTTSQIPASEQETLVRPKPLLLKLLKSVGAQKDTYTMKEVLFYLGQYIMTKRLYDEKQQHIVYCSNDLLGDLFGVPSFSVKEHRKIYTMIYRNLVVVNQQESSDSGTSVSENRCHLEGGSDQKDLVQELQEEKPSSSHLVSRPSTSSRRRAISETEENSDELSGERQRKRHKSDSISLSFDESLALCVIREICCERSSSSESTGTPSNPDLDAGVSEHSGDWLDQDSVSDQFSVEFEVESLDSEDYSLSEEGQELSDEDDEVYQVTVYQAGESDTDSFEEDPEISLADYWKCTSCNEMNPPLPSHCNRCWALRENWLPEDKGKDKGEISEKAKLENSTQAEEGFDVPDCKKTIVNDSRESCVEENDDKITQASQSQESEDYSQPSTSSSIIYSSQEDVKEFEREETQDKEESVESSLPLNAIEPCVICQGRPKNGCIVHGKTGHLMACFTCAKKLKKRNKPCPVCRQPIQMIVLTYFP

`O=C(N[C@@H](Cc1cn(C(=O)OCc2ccccc2)c2cc(F)ccc12)C(=O)O)c1ccccc1Oc1ccccc1` [2-phenoxybenzoyltryptophan derivative, R3C3]: the inhibition constant Ki came to 800 nM.
Take `Cc1ccc2c(c1)c(C[C@H](NC(=O)c1ccccc1Oc1ccccc1)C(=O)O)cn2C(=O)OCc1ccccc1` [2-phenoxybenzoyltryptophan derivative, R5C3]: the Ki is 100 nM.
Turning to `O=C(N[C@@H](Cc1c[nH]c2cc(Cl)ccc12)C(=O)O)c1ccccc1Oc1ccccc1` [2-phenoxybenzoyltryptophan derivative, R2C1], the inhibitory constant (Ki) worked out at 6000 nM.
Turning to `O=C(N[C@@H](Cc1cn(C(=O)CCC2CCCC2)c2cc(Cl)ccc12)C(=O)O)c1ccccc1Oc1ccccc1` [2-phenoxybenzoyltryptophan derivative, R2C2], the Ki came out at 800 nM.
With `N#Cc1ccc2c(c1)c(C[C@H](NC(=O)c1ccccc1Oc1ccccc1)C(=O)O)cn2C(=O)CCC1CCCC1` [2-phenoxybenzoyltryptophan derivative, R4C2], the Ki came to 600 nM.
Then `O=C(N[C@@H](Cc1cn(C(=O)OCc2ccccc2)c2cc(Cl)ccc12)C(=O)O)c1ccccc1Oc1ccccc1` [2-phenoxybenzoyltryptophan derivative, R2C3], with 600 nM; and `N#Cc1ccc2[nH]cc(C[C@H](NC(=O)c3ccccc3Oc3ccccc3)C(=O)O)c2c1` [2-phenoxybenzoyltryptophan derivative, R4C1], with 10000 nM; and `O=C(N[C@@H](Cc1cn(C(=O)CCC2CCCC2)c2cc(F)ccc12)C(=O)O)c1ccccc1Oc1ccccc1` [2-phenoxybenzoyltryptophan derivative, R3C2], with 400 nM.
As to `O=C(N[C@@H](Cc1cn(Cc2ccc(OCc3ccccc3)cc2)c2cc(Br)ccc12)C(=O)O)c1ccccc1Oc1ccccc1` [2-phenoxybenzoyltryptophan derivative, R1C4], the Ki came to 600 nM.
Next, `Cc1ccc2[nH]cc(C[C@H](NC(=O)c3ccccc3Oc3ccccc3)C(=O)O)c2c1` [2-phenoxybenzoyltryptophan derivative, R5C1]: 10000 nM; `Cc1ccc2c(c1)c(C[C@H](NC(=O)c1ccccc1Oc1ccccc1)C(=O)O)cn2C(=O)CCC1CCCC1` [2-phenoxybenzoyltryptophan derivative, R5C2]: 200 nM.
On to `O=C(N[C@@H](Cc1cn(C(=O)OCc2ccccc2)c2cc(Br)ccc12)C(=O)O)c1ccccc1Oc1ccccc1` [2-phenoxybenzoyltryptophan derivative, R1C3], for which the Ki amounted to 500 nM.
As for `O=C(N[C@@H](Cc1cn(Cc2ccc(OCc3ccccc3)cc2)c2cc(F)ccc12)C(=O)O)c1ccccc1Oc1ccccc1` [2-phenoxybenzoyltryptophan derivative, R3C4], the inhibition constant (Ki) came out at 2000 nM.
For `N#Cc1ccc2c(c1)c(C[C@H](NC(=O)c1ccccc1Oc1ccccc1)C(=O)O)cn2Cc1ccc(OCc2ccccc2)cc1` [2-phenoxybenzoyltryptophan derivative, R4C4], the inhibitory constant (Ki) is 1000 nM.
Next, `Cc1ccc2c(c1)c(C[C@H](NC(=O)c1ccccc1Oc1ccccc1)C(=O)O)cn2Cc1ccc(OCc2ccccc2)cc1` [2-phenoxybenzoyltryptophan derivative, R5C4]: 600 nM; `O=C(N[C@@H](Cc1c[nH]c2cc(F)ccc12)C(=O)O)c1ccccc1Oc1ccccc1` [2-phenoxybenzoyltryptophan derivative, R3C1]: 20000 nM; `N#Cc1ccc2c(c1)c(C[C@H](NC(=O)c1ccccc1Oc1ccccc1)C(=O)O)cn2C(=O)OCc1ccccc1` [2-phenoxybenzoyltryptophan derivative, R4C3]: 600 nM.
Then `O=C(N[C@@H](Cc1cn(C(=O)CCC2CCCC2)c2cc(Br)ccc12)C(=O)O)c1ccccc1Oc1ccccc1` [2-phenoxybenzoyltryptophan derivative, R1C2], with 800 nM.
For `O=C(N[C@@H](Cc1c[nH]c2cc(Br)ccc12)C(=O)O)c1ccccc1Oc1ccccc1` [2-phenoxybenzoyltryptophan derivative, R1C1], the inhibition constant Ki was 3000 nM.
With `O=C(N[C@@H](Cc1cn(Cc2ccc(OCc3ccccc3)cc2)c2cc(Cl)ccc12)C(=O)O)c1ccccc1Oc1ccccc1` [2-phenoxybenzoyltryptophan derivative, R2C4], the Ki came to 1000 nM.

A word on the Ki: it is the equilibrium dissociation constant of an inhibitor or competing ligand from its target.
